Target: unphosphorylated-BTK kinase domain (UP-BTK), GST-tagged human BTK (389-659aa) (Homo sapiens (Human), UniProt Q06187)
Assay: BTK Kinase Lanthascreen Binding Assay
Conditions: for BTK_I_binding pIC50: pIC50 = negative log of the IC50 in molar; for IC50: read-out: BTK_I_binding pIC50 (converted)
Experimental: BTK Kinase Lanthascreen Binding Assay:
A BTK kinase lanthascreen binding assay monitors compound binding to unphosphorylated-BTK kinase domain (UP-BTK), by competing with a fluorescent labeled tracer. […] Data were analyzed using Xlfit™ version 5.3 from ID Business Solutions (Guildford), Microsoft Excel add-in. pIC50 refers to the negative log of the IC50 in molar.

[1] = Lanthascreen binding, 60 minutes incubation
[2] = compound, 50 nM Tracer 236, 2 nM anti-GST antibody, 60 minutes

Chain of unphosphorylated-BTK kinase domain (UP-BTK), GST-tagged human BTK (389-659aa) (Q06187 389-659): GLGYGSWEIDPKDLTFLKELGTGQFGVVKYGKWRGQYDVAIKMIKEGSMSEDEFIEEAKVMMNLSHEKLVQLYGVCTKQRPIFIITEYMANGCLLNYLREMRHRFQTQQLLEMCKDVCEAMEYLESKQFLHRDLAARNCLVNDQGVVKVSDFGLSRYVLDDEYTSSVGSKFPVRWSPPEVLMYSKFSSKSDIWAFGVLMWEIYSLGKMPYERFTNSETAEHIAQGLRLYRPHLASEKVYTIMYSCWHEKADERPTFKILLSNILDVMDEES

SMILES	BTK_I_binding pIC50 [1]	BTK_I_binding pIC50 [2]	also measured
C=CC(=O)N[C@@H]1CCCC[C@H]1NC(=O)c1sc2nccc3c2c1NC(=O)N3c1ccc(Oc2ccccc2)nc1C (single isomer, unassigned) [Example 322, N-((1R,2R)-2-Acrylamidocyclohexyl)-5-(*S)-(2-methyl-6-phenoxypyridin-3-yl)-4-oxo-4,5-dihydro-3H-1-thia-3,5,8-triazaacenaphthylene-2-carboxamide]	6.81	–	–
C=CC(=O)N[C@H]1CCCC[C@H]1NC(=O)c1sc2nccc3c2c1NC(=O)N3c1ccc(OC(C)C)nc1C (single isomer, unassigned) [Example 209, N-((1R,2S)-2-Acrylamidocyclohexyl)-5-(*S)-(6-isopropoxy-2-methylpyridin-3-yl)-4-oxo-4,5-dihydro-3H-1-thia-3,5,8-triazaacenaphthylene-2-carboxamide]	–	7.31	–
Cc1cc(Oc2ccccc2)ncc1N1C(=O)Nc2c(C(=O)N[C@@H]3CCCC[C@@H]3N)sc3nccc1c23 (single isomer, unassigned) [Example 375, N-((1R,2S)-2-Aminocyclohexyl)-5-(*S)-(4-methyl-6-phenoxypyridin-3-yl)-4-oxo-4,5-dihydro-3H-1-thia-3,5,8-triazaacenaphthylene-2-carboxamide]	6.92	–	–
CCC(=O)N[C@@H]1CCC[C@H](NC(=O)c2sc3nccc4c3c2NC(=O)N4c2ccc(Oc3ccccc3)nc2C)C1 (single isomer, unassigned) [Example 412, 5-(*S)-(2-Methyl-6-phenoxypyridin-3-yl)-4-oxo-N-((1S,3R)-3-propionamidocyclohexyl)-4,5-dihydro-3H-1-thia-3,5,8-triazaacenaphthylene-2-carboxamide]	–	–	IC50: > 1000 nM
Cc1cc(Oc2ccccc2)ccc1N1C(=O)Nc2c(C(=O)N[C@H]3CC[C@H](O)CC3)sc3nccc1c23 [Example 86, N-((1R,4R)-4-Hydroxycyclohexyl)-5-(*R)-(2-methyl-4-phenoxyphenyl)-4-oxo-4,5-dihydro-3H-1-thia-3,5,8-triazaacenaphthylene-2-carboxamide]	–	–	IC50: 229 nM
C=CC(=O)N[C@H]1CCC[C@H]1NC(=O)c1sc2nccc3c2c1NC(=O)N3c1ccc(Oc2cccc(C)n2)cc1C [Example 368, N-((1R,2S)-2-acrylamidocyclopentyl)-5-(2-methyl-4-((6-methylpyridin-2-yl)oxy)phenyl)-4-oxo-4,5-dihydro-3H-1-thia-3,5,8-triazaacenaphthylene-2-carboxamide]	8.13	–	–
C=CC(=O)N[C@H]1CCC[C@H]1NC(=O)c1sc2nccc3c2c1NC(=O)N3c1ccc(Oc2cccc(C)n2)cc1 [Example 369, N-((1R,2S)-2-Acrylamidocyclopentyl)-5-(4-((6-methylpyridin-2-yl)oxy)phenyl)-4-oxo-4,5-dihydro-3H-1-thia-3,5,8-triazaacenaphthylene-2-carboxamide]	8.06	–	–
C=CC(=O)N[C@H]1CCC[C@H]1NC(=O)c1sc2nccc3c2c1NC(=O)N3c1ccc(Oc2ncccn2)cn1 [Example 484, N-((1R,2S)-2-Acrylamidocyclopentyl)-4-oxo-5-(5-(pyrimidin-2-yloxy)pyridin-2-yl)-4,5-dihydro-3H-1-thia-3,5,8-triazaacenaphthylene-2-carboxamide]	6.93	–	–
C=CC(=O)N[C@H]1CCC[C@H]1NC(=O)c1sc2nccc3c2c1NC(=O)N3c1ccnc(-c2ccccn2)c1 [Example 325, 5-([2,2′-Bipyridin]-4-yl)-N-((1R,2S)-2-acrylamidocyclopentyl)-4-oxo-4,5-dihydro-3H-1-thia-3,5,8-triazaacenaphthylene-2-carboxamide]	7.07	–	–
C=CC(=O)N[C@H]1CCCC[C@H]1NC(=O)c1sc2nccc3c2c1NC(=O)N3c1cnc(OC2CCCC2)cc1C (single isomer, unassigned) [Example 341, N-((1R,2S)-2-Acrylamidocyclohexyl)-5-(*R)-(6-(cyclopentyloxy)-4-methylpyridin-3-yl)-4-oxo-4,5-dihydro-3H-1-thia-3,5,8-triazaacenaphthylene-2-carboxamide]	6.23	–	–
N[C@H]1CCC[C@H]1NC(=O)c1sc2nccc3c2c1NC(=O)N3c1ccc(Oc2ccccc2)cc1 [Example 97, N-((1R,2S)-2-Aminocyclopentyl)-4-oxo-5-(4-phenoxyphenyl)-4,5-dihydro-3H-1-thia-3,5,8-triazaacenaphthylene-2-carboxamide]	–	7.70	–
C=CC(=O)N[C@H]1CC[C@H](NC(=O)c2sc3nccc4c3c2NC(=O)N4c2ccc(Oc3ccccc3)cc2C)C1 (single isomer, unassigned) [Example 226, N-((1S,3S)-3-Acrylamidocyclopentyl)-5-(*S)-(2-methyl-4-phenoxyphenyl)-4-oxo-4,5-dihydro-3H-1-thia-3,5,8-triazaacenaphthylene-2-carboxamide]	–	6.85	–
CC(=O)N[C@@H]1CC[C@H](NC(=O)c2sc3nccc4c3c2NC(=O)N4c2ccc(Oc3ccccc3)cc2C)C1 [Example 70, N-((1S,3R)-3-Acetamidocyclopentyl)-5-(2-methyl-4-phenoxyphenyl)-4-oxo-4,5-dihydro-3H-1-thia-3,5,8-triazaacenaphthylene-2-carboxamide]	–	7.69	–
Cc1cc(Oc2ccccc2)ccc1N1C(=O)Nc2c(C(=O)N[C@@H]3CCC[C@@H]3O)sc3nccc1c23 (single isomer, unassigned) [Example 8, N-((1R,2S)-2-Hydroxycyclopentyl)-5-(*S)-(2-methyl-4-phenoxyphenyl)-4-oxo-4,5-dihydro-3H-1-thia-3,5,8-triazaacenaphthylene-2-carboxamide]	–	7.95	–
CNCC(=O)N[C@H]1CCC[C@H]1NC(=O)c1sc2nccc3c2c1NC(=O)N3c1ccc(Oc2ccccc2)cc1C (single isomer, unassigned) [Example 122, 5-(*S)-(2-Methyl-4-phenoxyphenyl)-N-((1R,2S)-2-(2-(methylamino)acetamido)cyclopentyl)-4-oxo-4,5-dihydro-3H-1-thia-3,5,8-triazaacenaphthylene-2-carboxamide]	–	7.18	–
C=CC(=O)N[C@H]1CCCC[C@H]1NC(=O)c1sc2nccc3c2c1NC(=O)N3c1ccc(Oc2cccnn2)cc1C [Example 406, N-((1R,2S)-2-Acrylamidocyclohexyl)-5-(2-methyl-4-(pyridazin-3-yloxy)phenyl)-4-oxo-4,5-dihydro-3H-1-thia-3,5,8-triazaacenaphthylene-2-carboxamide]	6.13	–	–
C=CC(=O)N[C@H]1CC[C@H](NC(=O)c2sc3nccc4c3c2NC(=O)N4c2ccc(Oc3ccccc3)cc2C)CC1 [Example 13, N-((1R,4R)-4-Acrylamidocyclohexyl)-5-(2-methyl-4-phenoxyphenyl)-4-oxo-4,5-dihydro-3H-1-thia-3,5,8-triazaacenaphthylene-2-carboxamide]	–	6.94	–
C=CC(=O)N[C@@H]1CC[C@H](NC(=O)c2sc3nccc4c3c2NC(=O)N4c2ccc(OC(C)C)cc2C)C1 (single isomer, unassigned) [Example 186, N-((1S,3R)-3-Acrylamidocyclopentyl)-5-(*R)-(4-isopropoxy-2-methylphenyl)-4-oxo-4,5-dihydro-3H-1-thia-3,5,8-triazaacenaphthylene-2-carboxamide]	–	7.62	–
Cc1cc(CC(C)C)ncc1N1C(=O)Nc2c(C(=O)N[C@@H]3CCC[C@@H]3NC(=O)/C(C#N)=C/C3CC3)sc3nccc1c23 (single isomer, unassigned) [Example 466, N-((1R,2S)-2-((E)-2-Cyano-3-cyclopropylacrylamido)cyclopentyl)-5-(*S)-(6-isobutyl-4-methylpyridin-3-yl)-4-oxo-4,5-dihydro-3H-1-thia-3,5,8-triazaacenaphthylene-2-carboxamide]	7.63	–	–
C=CC(=O)N[C@@H]1CCC[C@H]1NC(=O)c1sc2nccc3c2c1NC(=O)N3c1ccc(Oc2ccccc2)cc1C (single isomer, unassigned) [Example 105, N-((1R,2R)-2-Acrylamidocyclopentyl)-5-(*S)-(2-methyl-4-phenoxyphenyl)-4-oxo-4,5-dihydro-3H-1-thia-3,5,8-triazaacenaphthylene-2-carboxamide]	–	8.11	–
C=CC(=O)N[C@H]1CCC[C@@H]1NC(=O)c1sc2nccc3c2c1NC(=O)N3c1ccc(Oc2ccccc2)cc1C (single isomer, unassigned) [Example 56, N-((1S,2S)-2-Acrylamidocyclopentyl)-5-(*R)-(2-methyl-4-phenoxyphenyl)-4-oxo-4,5-dihydro-3H-1-thia-3,5,8-triazaacenaphthylene-2-carboxamide]	–	5.77	–
C=CC(=O)N[C@H]1CCCC[C@H]1NC(=O)c1sc2nccc3c2c1NC(=O)N3c1cnc(OCC(C)C)cc1C [Example 225, N-((1R,2S)-2-Acrylamidocyclohexyl)-5-(6-isobutoxy-4-methylpyridin-3-yl)-4-oxo-4,5-dihydro-3H-1-thia-3,5,8-triazaacenaphthylene-2-carboxamide]	–	7.66	–
C=CC(=O)N[C@H]1CCCC[C@H]1NC(=O)c1sc2nccc3c2c1NC(=O)N3c1ncc(Oc2ccccc2)cn1 [Example 297, N-((1R,2S)-2-Acrylamidocyclohexyl)-4-oxo-5-(5-phenoxypyrimidin-2-yl)-4,5-dihydro-3H-1-thia-3,5,8-triazaacenaphthylene-2-carboxamide]	8.53	–	–
C=CC(=O)N[C@H]1CCCC[C@H]1NC(=O)c1sc2nccc3c2c1NC(=O)N3c1cnc(OCC(C)C)cc1C (single isomer, unassigned) [Example 312, N-((1R,2S)-2-Acrylamidocyclohexyl)-5-(*S)-(6-isobutoxy-4-methylpyridin-3-yl)-4-oxo-4,5-dihydro-3H-1-thia-3,5,8-triazaacenaphthylene-2-carboxamide]	8.01	–	–

From patent US10934310B2, “Inhibitors of Bruton's tyrosine kinase and method of their use” (JANSSEN PHARMACEUTICA NV, priority 2015, dated 2021)
